{"source": "patent US7591997B2", "about": "“Method for determining the susceptibility of a subject to infection” (Mabtech AB, priority 2002, dated 2009)", "test_system": "Actinobacillus actinomycetemcomitans", "assay": "Standard colony forming units (CFU) assay of LL-37 on A. actinomycetemcomitans", "type": "cell-based", "method": "In this study we used an isolate of Actinobacillus actinomycetemcomitans from the oral cavitas of patient (A), kindly provided by Dr A. Johansson (Umeå). Bacteria were routinely grown on tryptic soy agar (Difco) supplemented with 0.5% yeast extract (TSBY) at microaerophilic conditions. The effect of LL-37 on A. actinomycetemcomitans was tested in a standard colony forming units (CFU)-assay (Tanaka et al., Oral Microbiol Immunol. 2000;15(4):226-31) by incubating 10^5 bacteria for 90 min with 20 μg/ml of synthetic LL-37 in 10 mM phosphate buffer pH 7.2 with 1% TSBY.", "data": [{"substance": "LL-37: Human cathelicidin-type antibacterial peptide encoded by the CAMP gene, SEQ ID NO: 3; released from the proform cathelin-LL-37 (LLGDFFRKSKEKIGKEFKRIVQRIKDFLRNLVPRTES; homo sapiens)", "values": [{"measurement": "reduction in colony counts", "setting": "20 μg/ml LL-37 for 90 min, 10^5 bacteria, isolate from patient (A), 10 mM phosphate buffer pH 7.2 with 1% TSBY", "result": "3-4 log"}, {"measurement": "effect on growth of the bacteria in vitro", "setting": "A. actinomycetemcomitans isolated from patient (A)", "result": "could stop the growth"}]}]}
